PubChem BioAssay (NCI)
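Growth conditions: 96-well plates. Treatment: test compound, 48 hours, 5 concentrations. Analysis: linear interpolation between bracketing concentrations; unreached endpoints set to highest concentration. GI50 marks 50% less growth. TGI marks complete inhibition of growth.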

What was measured:
Experiment in all cases: growth of human tumour cells (NCI), 48 h
SF-268 CNS = test system: SF-268 CNS
M14 melanoma = test system: M14 melanoma
U251 CNS = test system: U251 CNS
TK-10 renal = test system: TK-10 renal
HS 578T breast = test system: HS 578T breast
NCI/ADR-RES ovarian = test system: NCI/ADR-RES ovarian
SF-539 CNS = test system: SF-539 CNS
SK-MEL-2 melanoma = test system: SK-MEL-2 melanoma
SK-MEL-5 melanoma = test system: SK-MEL-5 melanoma
LOX IMVI melanoma = test system: LOX IMVI melanoma

SMILES | TGI (SF-268 CNS) [µM] | TGI (M14 melanoma) [µM] | TGI (U251 CNS) [µM] | TGI (TK-10 renal) [µM] | TGI (HS 578T breast) [µM] | TGI (NCI/ADR-RES ovarian) [µM] | TGI (SF-539 CNS) [µM] | TGI (SK-MEL-2 melanoma) [µM] | TGI (SK-MEL-5 melanoma) [µM] | TGI (LOX IMVI melanoma) [µM] | GI50 (SF-268 CNS) [µM] | GI50 (M14 melanoma) [µM] | GI50 (U251 CNS) [µM] | GI50 (NCI/ADR-RES ovarian) [µM] | GI50 (SK-MEL-5 melanoma) [µM] | GI50 (LOX IMVI melanoma) [µM]
CCCOC(=O)NC(C)C(=O)NC(CCC(=O)NC(CCCC(N)C(=O)O)C(=O)NC(C)C(=O)O)C(=O)O (centres undefined) | 42.3 | 40.6 | 55.9 | > 100 | 40.5 | 37 | 31.3 | > 100 | 30.5 | 30.1 |  |  |  |  |  | 
COC(=O)C1OC(O[C@H]2CC[C@]3(C)[C@H]4CC=C5[C@@H]6CC(C)(C)CC[C@]6(C(=O)OC6OCC(O)C(O)C6OC6OC(C)C(OC7OCC(OC8OCC(O)C(O)C8O)C(O)C7O)C(O)C6O)[C@H](O)C[C@@]5(C)[C@]4(C)CC[C@H]3C2(C)C)C(O)C(O)C1O (some centres undefined) | 13.9 | 3.56 | 18.2 | 22.5 | 13 | 21.1 | > 100 | 10.1 | 11.6 | 22 |  |  |  |  |  | 
c1ccc(-c2cnc(-c3ccc(-c4ncc(-c5ccccc5)o4)cc3)o2)cc1 | > 100 | > 100 | > 100 | > 100 | > 100 | > 100 |  |  | > 100 | > 100 |  |  |  |  |  | 
O=c1n(Cc2ccccc2)c(=O)n2c(=O)n(Cc3ccccc3)c(=O)n12 | > 100 |  | > 100 | > 100 | > 100 | > 100 | > 100 |  | > 100 | > 100 |  |  |  |  |  | 
CC(C)CCn1nc(N)c2nc3ccccc3nc21 | > 100 | > 100 | > 100 | > 100 | > 100 | > 100 | > 100 | > 100 |  | > 100 |  |  |  |  |  | 
COP(=O)(OC)C12CCOCCN1c1ccccc1C2=O (centres undefined) | > 100 | > 100 | > 100 | > 100 | > 100 | > 100 | > 100 | > 100 | > 100 |  |  |  |  |  |  | 
C=C1C(=O)OC2/C=C(/C)C3(O)OC(C)(CC(OC(=O)C(C)C)C12)CC3OC(C)=O (centres undefined) | > 100 | 68 | 38.2 | 24.4 |  | > 100 | > 29.5 | 49.7 | 23.8 | > 68.8 |  |  |  |  |  | 
O=C(OCc1ccccc1)C(Cc1ccccc1)N(Cc1ccccc1)Cc1ccccc1 (centres undefined) | > 100 | > 100 | > 100 | > 100 |  |  | > 100 | > 100 | > 100 |  |  |  |  |  |  | 
Cc1c(C#N)c(N)n(C2OCC(O)C(O)C2O)c(=S)c1C#N (centres undefined) | > 100 | > 100 |  | > 100 | > 100 | > 100 | > 100 | > 100 | > 100 | > 100 |  |  |  |  |  | 
COC(=O)C1=C(O)C(C(=O)OC)[C@@]2(O)[C@@H](C(=O)OC)[C@H](C)[C@@H](C)[C@@H]1[C@@H]2C(=O)OC (some centres undefined) | > 100 | > 100 | > 100 | > 100 | > 100 |  | > 100 | > 100 |  | > 100 |  |  |  |  |  | 
CN(C)P(=O)(Oc1occc1C(O)Cc1ccccc1)N(C)C (centres undefined) | > 100 | > 100 | > 100 | > 100 |  | > 100 | > 100 | > 100 | > 100 | > 100 |  |  |  |  |  | 
COc1cc(CNc2nc3cc(C(F)(F)F)ccc3nc2-c2ccccc2)cc(OC)c1OC | > 100 | > 100 | > 100 | > 100 | > 100 | 81.8 | > 100 |  | 73.3 | > 100 |  |  |  |  |  | 
COc1cc2c(c(O)c1O)-c1ccc(OC)c(=O)cc1C(NC(C)=O)CC2 (centres undefined) | > 100 | > 100 | 25.8 | > 100 |  |  | 24 | 16.5 | 16.2 | 34.8 |  |  |  |  |  | 
CCN1C(=O)N(CC)C2Nn3c(s/c(=C4\C(=O)N(C)c5ccccc54)c3=O)=NC21 (centres undefined) | > 100 | > 100 | > 100 |  |  | > 100 |  |  | > 100 | > 100 | > 100 | 2.41 | 4.21 | 1.95 | 4.61 | 4.82
CCOC(=O)C(C)c1nc2c(Cl)c3ncccc3cc2[nH]c1=O (centres undefined) | > 100 | > 100 | > 100 | > 100 | 90.4 | > 100 |  | > 100 | > 100 | > 100 |  |  |  |  |  | 
O=C(c1ccccc1)N1C(=S)N=C(Nc2ccccc2)C1=Nc1ccccc1 | > 100 |  | > 100 | > 100 | > 100 | > 100 | > 100 | > 100 | > 100 | > 100 |  |  |  |  |  | 
CC1(C)OC2CC(=O)OCC23C1CC(=O)C1(C)C3CCC2(C)C(c3ccoc3)OC(=O)C3OC321 (centres undefined) | > 125 |  | > 125 |  |  | > 125 | > 125 | > 125 | > 125 | > 125 |  |  |  |  |  | 
Cc1cn([C@H]2C[C@](C)(CO)N(C)O2)c(=O)[nH]c1=O | > 100 | > 100 | > 100 | > 100 | > 100 | > 100 |  | > 100 | > 100 | > 100 |  |  |  |  |  | 
C[C@]12CC[C@H](O)C=C1CC[C@@H]1[C@@H]2CC[C@]2(C)C(c3ccc(=O)oc3)CC[C@]12O (some centres undefined) | 0.0269 |  | 0.102 |  |  | 0.0926 | 0.0152 | 0.0647 | 0.0163 | 0.242 |  |  |  |  |  | 
CC(C)(C)OC(=O)n1c(-c2ccccc2F)cc(=O)c2cc3c(cc21)OCO3 | > 100 | > 100 | > 32.9 | > 100 | 1.41 | 0.0555 | > 72.9 | > 100 | 1.2 |  |  |  |  |  |  | 
O=C(O)CC(NC(=O)/C(=C/c1ccccc1O)NC(=O)c1ccccc1)C(=O)O (centres undefined) |  | > 100 | > 100 | > 100 |  | > 100 | > 100 | > 100 | > 100 | > 100 |  |  |  |  |  | 
O=[N+]([O-])c1ccc(C2=Nc3ccccc3SC(c3ccccc3)C2)cc1 (centres undefined) | 63.3 | 36.3 | 26.3 | > 100 |  |  | 40.3 | 33.2 | 32.9 | 29.3 |  |  |  |  |  | 
COC(=O)[C@H](C)NC(=O)[C@H](CSC)N1C(=O)N[C@@H](C(C)C)C1=O |  | > 100 | > 100 | > 100 |  | > 100 | > 100 | > 100 | > 100 | > 100 |  |  |  |  |  | 
